Laboratory results reported in patent publication US10272061B2, “Compositions and methods for unoccluded transdermal oxybutynin therapy” (Allergan Sales, LLC, priority 2000, dated 2019).
Like-named read-outs stand apart in the source and are kept apart here. Values belong to the molecule of their own block, whether it stands above or below them.

Experiments:
[1] = Plasma concentrations after single application of 4.4% oxybutynin topical gel to the abdomen; assay type: in vivo, human; conditions: single 3 g of 4.4% oxybutynin gel, 400 cm^2 abdomen; for time over which mean plasma levels increased steadily to Cmax: 'during the following' hours
Text: (§1) A clinical study in 22 healthy volunteers, 19 to 45 years of age, evaluated plasma concentrations of oxybutynin and the N-desethyloxybutynin metabolite after a single topical application of oxybutynin gel. The study employed a single dose design to evaluate the pharmacokinetics and skin tolerability of a gel formulation for oxybutynin hydrochloride.
(§2) Volunteers received a single topical administration of 3 g of 4.4% oxybutynin gel to a 400 cm^2 area of unbroken skin on the abdomen. Blood samples were periodically collected throughout the study period and plasma was harvested according to standard procedures. Plasma oxybutynin and N-desethyloxybutynin metabolite concentrations were estimated using a high performance liquid chromatography-tandem mass spectrometry method performed according to established guidelines.

[2] = Plasma concentrations after single application of 13.2% oxybutynin topical gel to the abdomen; assay type: in vivo, human; conditions: single 1 g of 13.2% oxybutynin gel, 133 cm^2 abdomen; for time over which mean plasma levels increased steadily to Cmax: 'during the following' hours
Text: as §1
as §2, with “1” for “3”, “13.2%” for “4.4%”, “133” for “400”

[3] = Single and multiple dose pharmacokinetics after oxybutynin gel administration; assay type: in vivo, human; conditions: for mean Cmax: 72 hour evaluation; for half-life: read-out: elimination half-life (converted)
Description: A clinical study in 20 healthy volunteers, 20 to 44 years of age, evaluated the single and multiple dose pharmacokinetics of oxybutynin and N-desethyloxybutynin following topical oxybutynin gel administration. The study employed a two-period multiple dose study.
In the first treatment period, volunteers received a topical administration of 3 g of 4.4% oxybutynin gel followed by a 72 hour evaluation period. The second treatment period, oxybutynin gel was administered topically to the volunteers on 7 consecutive mornings. The two treatment periods were separated by a 7-day washout period. Blood samples were periodically collected throughout the study periods and plasma was harvested according to standard procedures. Plasma oxybutynin and N-desethyloxybutynin metabolite concentrations were estimated using high performance liquid chromatography-tandem mass spectrometry method performed according to established guidelines.
After a 7-day washout following the initial gel application, subjects applied daily 3 g doses of oxybutynin gel to rotating body sites (abdomen, upper arms, thighs) for 7 consecutive days. Plasma samples were drawn each morning before the next gel application.

[4] = Single-dose pharmacokinetics after oxybutynin gel on 400 cm^2 and 800 cm^2 application areas on the thighs; assay type: in vivo, human; conditions: 3 g of 4.4% oxybutynin gel; for Cmax: at 48 hours
Text: A clinical study in 21 healthy volunteers, 21 to 45 years of age, evaluated the effect of application surface area on the single-dose pharmacokinetic of oxybutynin following topical oxybutynin gel administration. The study employed a two-period, open-labeled, randomized crossover design to evaluate the effect of application surface area on the single dose pharmacokinetics and safety of a topical gel formulation of oxybutynin hydrochloride.
Volunteers received topical administrations of 3 g of 4.4% oxybutynin gel at the beginning of two 72 hour treatment periods, with a minimum six day washout separating the treatment periods. Each volunteer received a dose applied to a 400 cm^2 area in one treatment period, and a dose to an 800 cm^2 area the other treatment period. The sequential order of the treatment periods was randomized. Blood samples were periodically collected throughout the study periods and plasma was harvested according to standard procedures. Plasma oxybutynin and N-desethyloxybutynin metabolite concentrations were evaluated using high performance liquid chromatography-tandem mass spectrometry method performed according to established guidelines.

[5] = Plasma concentrations after single and repeated application of 4.4% oxybutynin gel to the abdomen; assay type: in vivo; conditions: human, topical, once daily
Text: as §1, with “in 12” for “in 22”, “to 41” for “to 45”, “after” for “after a”, “single and repeated” for “single”, “topical applications” for “topical application”, “a single-period, open-label, multiple” for “a single”
as §2, with “received” for “received a single”, “topical administrations” for “topical administration”, “gel on 3 consecutive mornings. Each volunteer received the oxybutynin gel administrations on” for “gel to”, “a defined” for “a 400 cm^2”, “using” for “using a”

[6] = plasma, first period: single 3 g of 4.4% oxybutynin gel
[7] = second period: 7 consecutive daily 3 g gel applications
[8] = 400 cm^2 application area, thighs
[9] = 800 cm^2 application area, thighs
[10] = human, topical, plasma, read-out: elimination half-life (converted)
[11] = first period: single 3 g of 4.4% oxybutynin gel
[12] = second period, after the final of 7 daily gel applications

SMILES: CCNCC#CCOC(=O)C(O)(c1ccccc1)C1CCCCC1 (stereo not shown) [N-desethyloxybutynin]
elimination half-life ([1]; plasma): approximately 26.81 hours
time of second plasma peak after dosing [1]: approximately 48 hours
mean maximum plasma concentration (Cmax) ([1]; healthy volunteers): 2.20 ng/mL
time at which measurable plasma levels were detectable (first sampling point) ([1]; healthy volunteers): 2 h
time over which mean plasma levels increased steadily to Cmax [1]: 28 h
elimination half-life ([2]; plasma): 19.53 h
mean Cmax ([2]; plasma, healthy volunteers): 1.12 ng/mL
time of second plasma peak after dosing [2]: approximately 48 hours
time at which measurable plasma levels were detectable (first sampling point) ([2]; healthy volunteers): 2 h
time over which mean plasma levels increased steadily to Cmax [2]: 28 h
mean Cmax [3, 6]: 4.50 ng/mL
mean AUC ([3]; plasma, first period: single 3 g of 4.4% oxybutynin gel, 72 hour treatment period): 157 ng·h/mL
mean AUC ([3]; plasma, second period, first 24 hours after the final of 7 daily 3 g gel applications): 125 ng·h/mL
time of maximum concentration after the final gel application [3, 7]: approximately 16 hours
mean Cmax following the final gel application ([3]; second period: 7 consecutive daily 3 g gel applications, N-desethyloxybutynin: maximum for the 0-24 hour interval): 6.44 ng/mL
mean plasma level at the initial peak [4, 8]: 2.21 ng/mL
time at which measurable plasma levels were detectable [4, 8]: ≤ 2 h
time of the initial plasma peak [4, 8]: 28 h
plasma peak during the first 24 hours following dosing [4, 9]: 2.39 ng/mL
Cmax ([4]; plasma N-desethyloxybutynin, 400 cm^2 application area): 2.72 ng/mL
Cmax ([4]; plasma, 800 cm^2 application area): 3.40 ng/mL

Cmax ([1]; human, plasma, topical, healthy volunteers, read-out: mean maximum plasma concentration (Cmax)): 2.17 ng/mL
half-life [1, 10]: ~18.4 h
time of second plasma peak after dosing [1]: approximately 48 hours
time at which measurable plasma levels were detectable (first sampling point) ([1]; healthy volunteers): 2 h
time over which mean plasma levels increased steadily to Cmax [1]: 24 h
Cmax ([2]; human, topical, plasma, healthy volunteers): 1.17 ng/mL
half-life [2, 10]: 17.7 h
time of second plasma peak after dosing [2]: approximately 48 hours
time at which measurable plasma levels were detectable (first sampling point) ([2]; healthy volunteers): 2 h
time over which mean plasma levels increased steadily to Cmax [2]: 26 h
concentration at 24 h ([5]; plasma, 3 g of 4.4% oxybutynin gel, after the initial application of 3 g of 4.4% oxybutynin gel, read-out: plasma concentration at the 24 hour post-dose timepoint, mean±SD): 4.02 ± 2.19 ng/mL
concentration at 24 h ([5]; plasma, 3 g of 4.4% oxybutynin gel, after the second daily application of 3 g of 4.4% oxybutynin gel, read-out: plasma concentration 24 hours after application, mean±SD): 4.47 ± 2.38 ng/mL
concentration at 24 h ([5]; plasma, 3 g of 4.4% oxybutynin gel, after the third daily application of 3 g of 4.4% oxybutynin gel, read-out: plasma concentration at the 24 hour post-dose timepoint, mean±SD): 5.86 ± 3.17 ng/mL
half-life ([5]; 3 g of 4.4% oxybutynin gel, plasma elimination after the third application of 4.4% oxybutynin gel, read-out: apparent half-life (converted)): ~18 h
Cmax ([5]; plasma, following the third application of 3 g of 4.4% oxybutynin gel, read-out: Cmax, mean±SD): 6.05 ± 3.21 ng/mL
average plasma concentration during the 20 hours following the application ([3]; after the final of 7 daily 3 g gel applications): 6.22 ng/mL
mean oxybutynin AUC higher than mean N-desethyloxybutynin AUC [3, 11]: ~41%
mean oxybutynin Cmax higher than mean N-desethyloxybutynin Cmax [3, 11]: approximately 18%
time within which measurable plasma levels were detectable [3, 11]: two
Cmax ([3]; human, plasma, topical, 3 g of oxybutynin gel, once daily, second period: 7 consecutive daily 3 g gel applications, N-desethyloxybutynin: maximum for the 0-24 hour interval, read-out: mean Cmax following the final gel application): 9.01 ng/mL
concentration at 0 h ([3]; human, plasma, topical, 3 g of oxybutynin gel, once daily, second period: 7 consecutive daily 3 g gel applications, read-out: mean plasma concentration at Time 0 of the final gel application): 4.63 ng/mL
half-life ([3]; human, topical, 3 g of oxybutynin gel, once daily, plasma, after the final of 7 daily 3 g gel applications): ~24 h
AUC ([3]; human, topical, 3 g of oxybutynin gel, once daily, plasma, second period, first 24 hours after the final of 7 daily 3 g gel applications): 149 ng·h/mL
AUC ([3]; human, topical, plasma, first period: single 3 g of 4.4% oxybutynin gel, 72 hour treatment period): 186 ng·h/mL
half-life ([3]; human, topical, plasma, first period: single 3 g of 4.4% oxybutynin gel): ~18 h
mean Cmax [3, 6]: 6.35 ng/mL
mean oxybutynin AUC higher than mean N-desethyloxybutynin AUC [3, 12]: ~19%
mean oxybutynin Cmax higher than mean N-desethyloxybutynin Cmax [3, 12]: approximately 40%
time of maximum concentration after the final gel application [3, 7]: approximately 23 hours
time at which measurable plasma levels were detectable [4, 8]: 2 h
time of the initial plasma peak [4, 8]: 24 h
plasma peak during the first 24 hours following dosing [4, 9]: 2.92 ng/mL
concentration at 24 hours ([4]; human, plasma, topical, 400 cm^2 application area, thighs, read-out: mean plasma level at the initial peak): 2.25 ng/mL
Cmax ([4]; human, topical, plasma, 800 cm^2 application area, read-out: Cmax): 3.8 ng/mL
SMILES: CCN(CC)CC#CCOC(=O)C(O)(c1ccccc1)C1CCCCC1 (stereo not shown) [oxybutynin]
